Experimental data: patent publication US20080281105A1, “Novel Quinolinium Salts and Derivatives” (IMMUSOL INCORPORATED, priority 2005, published 2008)

How the values were obtained:
[1] = tested on: MCF7; test: Cell growth in liquid culture (alamarBlue); conditions: Homo sapiens, MCF7, 72 h, read-out: IC50 (uM) Liquid culture
[2] = tested on: MDA-231; test: Cell growth in liquid culture (alamarBlue); conditions: Homo sapiens, MDA-MB-231, 72 h, read-out: IC50 (uM) Liquid culture
[3] = tested on: HCT116-P53(−); test: Cell growth in liquid culture (alamarBlue); conditions: 72 h, read-out: IC50 (uM) Liquid culture
[4] = tested on: HT29; test: Cell growth in liquid culture (alamarBlue); conditions: Homo sapiens, HT-29, 72 h, read-out: IC50 (uM) Liquid culture
[5] = tested on: SW480; test: Cell growth in liquid culture (alamarBlue); conditions: Homo sapiens, SW480, 72 h, read-out: IC50 (uM) Liquid culture
[6] = tested on: DU145; test: Cell growth in liquid culture (alamarBlue); conditions: Homo sapiens, DU-145, 72 h, read-out: IC50 (uM) Liquid culture
[7] = tested on: ASPC-1; test: Cell growth in liquid culture (alamarBlue); conditions: Homo sapiens, ASPC1, 72 h, read-out: IC50 (uM) Liquid culture
[8] = tested on: A2780; test: Cell growth in liquid culture (alamarBlue); conditions: Homo sapiens, A2780, 72 h, read-out: IC50 (uM) Liquid culture
[9] = tested on: PA-1; test: Cell growth in liquid culture (alamarBlue); conditions: Homo sapiens, PA-1, 72 h, read-out: IC50 (uM) Liquid culture
[10] = tested on: OVCAR-8; test: Cell growth in liquid culture (alamarBlue); conditions: Homo sapiens, OVCAR-8, 72 h, read-out: IC50 (uM) Liquid culture
[11] = tested on: SK-OV-3; test: Cell growth in liquid culture (alamarBlue); conditions: Homo sapiens, SK-OV-3, 72 h, read-out: IC50 (uM) Liquid culture
[12] = tested on: OVCAR-4; test: Cell growth in liquid culture (alamarBlue); conditions: Homo sapiens, OVCAR-4, 72 h, read-out: IC50 (uM) Liquid culture
[13] = tested on: A549; test: Cell growth in liquid culture (alamarBlue); conditions: Homo sapiens, A549, 72 h, read-out: IC50 (uM) Liquid culture
[14] = tested on: NCI-H460; test: Cell growth in liquid culture (alamarBlue); conditions: Homo sapiens, NCI-H460, 72 h, read-out: IC50 (uM) Liquid culture
[15] = tested on: UACC257; test: Cell growth in liquid culture (alamarBlue); conditions: Homo sapiens, UACC-257, 72 h, read-out: IC50 (uM) Liquid culture
[16] = tested on: HUVEC; test: Cell growth in liquid culture (alamarBlue); conditions: Homo sapiens, 72 h, read-out: IC50 (uM) Liquid culture
[17] = tested on: W138; test: Cell growth in liquid culture (alamarBlue); conditions: W138, 72 h, read-out: IC50 (uM) Liquid culture
[18] = tested on: CCD112/N; test: Cell growth in liquid culture (alamarBlue); conditions: 72 h, read-out: IC50 (uM) Liquid culture
[19] = tested on: MCF7; test: Cell growth in soft agar culture (alamarBlue); conditions: Homo sapiens, MCF7, 168 h, read-out: IC50 (uM) Soft agar
[20] = tested on: T47D; test: Cell growth in soft agar culture (alamarBlue); conditions: Homo sapiens, 168 h, read-out: IC50 (uM) Soft agar
[21] = tested on: MDA-231; test: Cell growth in soft agar culture (alamarBlue); conditions: Homo sapiens, MDA-MB-231, 168 h, read-out: IC50 (uM) Soft agar
[22] = tested on: HCT116; test: Cell growth in soft agar culture (alamarBlue); conditions: Homo sapiens, HCT-116, 168 h, read-out: IC50 (uM) Soft agar
[23] = tested on: HCT116-P53(−); test: Cell growth in soft agar culture (alamarBlue); conditions: 168 h, read-out: IC50 (uM) Soft agar
[24] = tested on: HT29; test: Cell growth in soft agar culture (alamarBlue); conditions: Homo sapiens, HT-29, 168 h, read-out: IC50 (uM) Soft agar
[25] = tested on: PC3; test: Cell growth in soft agar culture (alamarBlue); conditions: Homo sapiens, PC-3, 168 h, read-out: IC50 (uM) Soft agar
[26] = tested on: A2780; test: Cell growth in soft agar culture (alamarBlue); conditions: Homo sapiens, A2780, 168 h, read-out: IC50 (uM) Soft agar
[27] = tested on: OVCAR-8; test: Cell growth in soft agar culture (alamarBlue); conditions: Homo sapiens, OVCAR-8, 168 h, read-out: IC50 (uM) Soft agar
[28] = tested on: OVCAR-5; test: Cell growth in soft agar culture (alamarBlue); conditions: Homo sapiens, OVCAR-5, 168 h, read-out: IC50 (uM) Soft agar
[29] = tested on: A549; test: Cell growth in soft agar culture (alamarBlue); conditions: Homo sapiens, A549, 168 h, read-out: IC50 (uM) Soft agar
[30] = tested on: UACC62; test: Cell growth in soft agar culture (alamarBlue); conditions: Homo sapiens, UACC-62, 168 h, read-out: IC50 (uM) Soft agar

## Cc1cc(/C=C/c2ccc3cc(N(C)C)ccc3[n+]2C)c(C)n1-c1ccccc1 [Example 1, Pyrvinium Phosphate]
[1]
  IC50: 0.03 to 0.1 µM
[2]
  IC50: 0.1 to 0.3 µM
[3]
  IC50: > 1 µM
[4]
  IC50: > 1 µM
[5]
  IC50: 0.3 to 1 µM
[6]
  IC50: > 1 µM
[7]
  IC50: 0.3 to 1 µM
[8]
  IC50: 0.03 to 0.1 µM
[9]
  IC50: 0.03 to 0.1 µM
[10]
  IC50: 0.1 to 0.3 µM
[11]
  IC50: 0.1 to 0.3 µM
[12]
  IC50: 0.1 to 0.3 µM
[13]
  IC50: 0.1 to 0.3 µM
[14]
  IC50: 0.1 to 0.33 µM
[15]
  IC50: ~0.1 µM
[16]
  IC50: 0.03 to 0.1 µM
[17]
  IC50: 0.1 to 0.3 µM
[18]
  IC50: ~1 µM
[19]
  IC50: < 0.03 µM
[20]
  IC50: < 0.03 µM
[21]
  IC50: < 0.03 µM
[22]
  IC50: 0.1 to 0.3 µM
[23]
  IC50: 0.1 to 0.3 µM
[24]
  IC50: 0.03 to 0.1 µM
[25]
  IC50: 0.1 to 0.3 µM
[26]
  IC50: 0.03 to 0.1 µM
[27]
  IC50: 0.03 to 0.1 µM
[28]
  IC50: 0.03 to 0.1 µM
[29]
  IC50: 0.033 to 0.1 µM
[30]
  IC50: 0.03 to 0.1 µM
